Assays:
human STING [1] = biological target: human STING (Homo sapiens, UniProt Q86WV6); details: cited from earlier work
human STING [2] = biological target: T1, human STING (Homo sapiens, UniProt Q86WV6, H232R); test: Cryo-EM structure of human STING in complex with compound; type: binding
T1 construct: human STING residues 1-343, excluding the C-terminal tail; T6SS immunity protein 3 (Tsi3) from Pseudomonas aeruginosa (C, cleaved yes); human rhinovirus 3C protease cleavage site (C); made in house; host or cells: HEK293F cells (pEZT-BM vector)
Method: Cryo-EM data collection and image processing. Purified wild type human STING at 50 μM were incubated with cGAMP at 100 μM and C53 at 100 μM for formation of the protein/ligands complex. The complex was purified using a Superose 6 10/300 gel filtration column (GE healthcare) in buffer C. Peak fractions were collected and concentrated to 2.9 mg/ml. Additional cGAMP (100 μM) and C53 (100 μM) were added to ensure saturation of the protein by the ligands. The sample was applied to a glow-discharged Quantifoil R1.2/1.3 300-mesh gold holey carbon grid (Quantifoil, Micro Tools GmbH, Germany), blotted under 100% humidity at 4° C. and plunged into liquid ethane using a Mark IV Vitrobot (FEI).
Micrographs were collected on a Titan Krios microscope (FEI) with a K3 Summit direct electron detector (Gatan) in the super-resolution counting mode operated at 300 kV. The slit width of the GIF-Quantum energy filter was set to 20 eV. The nominal magnification was 81,000× and the pixel size of 1.08 Å. Micrographs were dose-fractioned into 36 frames with a total exposure time of 7.2 s at the dose rate of 1.6 e^−/Å^2/frame in the correlated double sampling (CDS) mode. Movie frames were motion-corrected and dose-weighted using the Motioncorr2 program (version 1.2). GCTF 1.06 was used for CTF correction. […] Local resolution was calculated in RELION (FIG. 6B). […]

STING [3] = biological target: T2, STING (Homo sapiens, UniProt Q86WV6, G230A/H232R/R293Q/R71H); test: cGAMP dose-response IFN induction in the presence of increasing compound concentrations; type: cell-based; details: for cGAMP induced IFN induction in the presence of increasing concentrations of compound: FIGS. 16A-16D
T2 construct: host or cells: THP-1 / THP1-Dual / THP1-Lucia ISG cells
Method: Compounds UT009, UT019, UT073 and UT122 were tested for their ability to interfere with cGAMP induced STING signaling. FIGS. 16A-16D show dose response plots of cGAMP induced IFN induction in the presence of increasing concentrations of each compound.
(§1) Compounds UT017, UT018, UT019 and UT0122 were tested for their ability to interfere with STING signaling. Interferon production in the presence of increasing concentrations of UT017, UT018, UT019 or UT0122 were measured in THP-1 cell lines under basal conditions. […] Compound UT0122 was further tested in THP1-Lucia™ ISG cells for interferon production at varying concentration, in the presence of an increasing dose of a STING agonist cGAMP.

STING [4] = biological target: T2, STING; test: STING pathway activity in THP1-Dual/THP-1 cells upon cGAMP or MSA-2 stimulation (luciferase/interferon readout); type: cell-based; details: THP-1 cells; for inhibition at 10 µM: 10 μM compound, cGAMP (100 μM) or MSA-2 (10 μM) stimulation; for Induction of interferon production in the presence of MSA2: 10 μM MSA2; for Induction of interferon production in the presence of MSA2 / Interferon production in the presence of cGAMP: increasing concentrations of compound; for Interferon production in the presence of cGAMP: 100 μM cGAMP
From the text: (§2) Methods of measuring STING activity and by extension, the activity of the compounds discussed herein, are known in the art. As an example, the STING pathway activity may be evaluated using reporter cell lines where a reporter gene (i.e., luciferase, GFP) is expressed under direct or indirect control of interferon response elements. For example, in an exemplary embodiment, the STING pathway can be measured using THP1-Dual™ cells (InvivoGen) which express the Lucia gene (a secreted luciferase reporter gene) under the control of an ISG54 minimal promoter in conjunction with five IFN-stimulated response elements. The STING pathway, when activated, stimulates interferon release which, in this model, will increase luciferase expression in a detectable manner. When inhibited, interferon release will be decreased, reducing luciferase expression in a detectable manner. The compounds can optionally be tested in the presence of external stimulation (i.e., using cGAMP, a natural agonist of STING, or MSA-2).
The STING pathway activity was evaluated in THP1-Dual™ cells (Invivogen). […] After incubating at 37° C. for 16 hours, the luciferase activity was measured by QUANTI-Luc™ (Invivogen).

STING [5] = biological target: T2, STING; test: Interferon production in THP-1 cells under basal conditions (no external stimulation); type: cell-based; details: for Comparative antagonistic effect among UT017, UT018, UT019, UT0122 / Relative induction of interferon production under basal conditions: THP-1 cell lines, basal conditions; for Relative induction of interferon production under basal conditions: increasing concentrations
From the text: as §2, §1
The STING pathway activity was evaluated in THP1-Dual™ cells (Invivogen). 1.5×10^5 THP1-Dual™ cells were seeded in 96-well plates and treated with the test compound followed by cGAMP (100 uM) or MSA-2 (10 uM, Science 2020, 369, eaba6098) 2 hours later. After incubating at 37° C. for 16 hours, the luciferase activity was measured by QUANTI-Luc™ (Invivogen).

T2 sequence (Q86WV6 whole entry R71H/G230A/H232R/R293Q): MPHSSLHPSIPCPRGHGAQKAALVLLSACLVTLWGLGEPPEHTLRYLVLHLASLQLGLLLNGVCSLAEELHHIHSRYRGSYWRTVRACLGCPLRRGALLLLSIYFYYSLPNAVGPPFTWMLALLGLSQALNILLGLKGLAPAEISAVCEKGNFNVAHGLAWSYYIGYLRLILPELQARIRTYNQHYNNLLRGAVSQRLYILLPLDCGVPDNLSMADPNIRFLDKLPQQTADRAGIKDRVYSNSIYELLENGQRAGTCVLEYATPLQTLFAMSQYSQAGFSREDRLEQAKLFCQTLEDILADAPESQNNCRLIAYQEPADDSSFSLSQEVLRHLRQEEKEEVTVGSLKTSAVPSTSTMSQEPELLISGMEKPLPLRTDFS
T1 sequence (Q86WV6 1-343 H232R): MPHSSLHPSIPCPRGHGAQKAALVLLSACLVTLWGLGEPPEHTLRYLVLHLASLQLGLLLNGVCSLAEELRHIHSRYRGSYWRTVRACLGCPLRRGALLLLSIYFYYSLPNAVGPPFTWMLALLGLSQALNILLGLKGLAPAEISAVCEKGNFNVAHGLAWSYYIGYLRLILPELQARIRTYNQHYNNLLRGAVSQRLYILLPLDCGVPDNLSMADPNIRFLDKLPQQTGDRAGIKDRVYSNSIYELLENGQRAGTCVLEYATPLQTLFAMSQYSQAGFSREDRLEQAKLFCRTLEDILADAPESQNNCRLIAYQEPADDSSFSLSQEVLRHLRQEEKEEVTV
Sequence of human STING (Homo sapiens, UniProt Q86WV6) (Q86WV6 whole entry H232R): as the sequence (Q86WV6 whole entry R71H/G230A/H232R/R293Q) above, with H71R, A230G, Q293R counted along it

Binding site in human STING (cryo-EM) (human STING [2])	inhibition at 10 µM (STING [4]) [%]	inhibition at 32 µM (STING [5]; 32 μM compound, no external stimulation, THP-1 cells) [%]	Comparative antagonistic effect among UT017, UT018, UT019, UT0122 (STING [5])	Induction of interferon by cGAMP (STING [3]; THP1-Lucia ISG cells, varying compound concentration, increasing dose of cGAMP)	SMILES	Activation of human STING (human STING [1])	cGAMP induced IFN induction in the presence of increasing concentrations of compound (STING [3])	Induction of interferon production in the presence of MSA2 (STING [4])	Interferon production in the presence of cGAMP (STING [4])	Relative induction of interferon production under basal conditions (STING [5])
–	–	–	–	–	Cc1ccc2c(=O)c3cccc(CC(=O)O)c3oc2c1C [DMXAA, 5,6-dimethylxanthenone-4-acetic acid]	does not activate human STING	–	–	–	–
bind at the same binding pocket as C53	> 50	–	–	–	CC1(C)C(=O)N(Cc2c(F)cccc2C(F)(F)F)c2cc(C(=O)NCc3c(F)cc(F)cc3F)ccc21 [UT009, 1-(2-fluoro-6-(trifluoromethyl)benzyl)-3,3-dimethyl-2-oxo-N-(2,4,6-trifluorobenzyl)indoline-6-carboxamide]	–	dose-dependent suppression of interferon production	inhibited the induction of interferon production in a dose dependent manner	reduction in interferon production with increasing concentration	–
–	–	> 50	highest antagonistic effect	–	CC1(C)C(=O)N(Cc2c(F)cccc2Cl)c2cc(CNS(=O)(=O)c3c(F)cc(F)cc3F)ccc21 [UT019, N-((1-(2-chloro-6-fluorobenzyl)-3,3-dimethyl-2-oxoindolin-6-yl)methyl)-2,4,6-trifluorobenzenesulfonamide]	–	dose-dependent suppression of interferon production	–	–	suppressed at the highest concentration tested
–	> 50	–	highest antagonistic effect	suppressed in a dose-dependent manner	Cc1nn(C)c(CN2C(=O)C(C)(C)c3ccc(C(=O)NCc4cc5ccccc5[nH]4)cc32)c1Br [UT122, N-((1H-indol-2-yl)methyl)-1-((4-bromo-1,3-dimethyl-1H-pyrazol-5-yl)methyl)-3,3-dimethyl-2-oxoindoline-6-carboxamide]	–	dose-dependent suppression of interferon production	antagonistic activity with an inhibition of interferon production in a dose dependent manner	antagonistic activity with an inhibition of interferon production in a dose dependent manner	suppressed at the highest concentration tested

From patent US20250170120A1, “ALLOSTERIC STING MODULATORS AND METHODS OF USE” (THE BOARD OF REGENTS OF THE UNIVERSITY OF TEXAS SYSTEM, priority 2022, published 2025)
